Values joined by “and” are separate entries in the source; they are usually repeats but may differ in a detail not shown here. Equal values may be shown once.
How the values were obtained:
[1] = system: Bacillus subtilis ATCC 19659; assay: Sporicidal activity of ester PFA, dirty conditions (Example 20); format: cell-based; conditions: 5 minutes
From the text: (§1) Various Bacillus and Aspergillus pathogens were used to evaluate the micro efficacy of ester PFA generated according to methods of the present invention.

[2] = system: Bacillus subtilis ATCC 6633; assay: as above; format: cell-based; conditions: 5 minutes
From the text: as §1

[3] = system: Bacillus subitilisATCC 19659; assay: Sporicidal activity of ester PFA versus POAA (Example 23); format: cell-based, Bacillus subtilis; conditions: 20°C, dirty
From the text: Additional Bacillus pathogens were used to evaluate the micro efficacy of ester PFA generated according to methods of the present invention in comparison to POAA.

[4] = Stability of PFA in use solution in the presence of soils, iodometric titration; format: physicochemical; conditions: 500 ppm PFA in 500 ppm hard water with soil load, ambient; FIG. 22
Protocol: To 200 g of 500 ppm hard water containing individual soil load at the desired concentration, was added PFA stock solution to target PFA concentration of 500 ppm. The resulting solution was stored under ambient conditions, and the level of PFA was monitored by iodometric titration at the specific time point.

[5] = system: Nalidixic acid resistant E. coli O157:H7; assay: Reduction of E. coli on raw beef brisket, dip treatment; format: cell-based; conditions: 10 minutes dip, ambient, 220 ppm POAA / 180 ppm PFA / 50 ppm LAS per formula (Table 15)
Protocol: Nalidixic acid resistant E. coli O157:H7 was used to evaluate the efficacy in treatment with performic acid composition on raw beef brisket according to the conditions shown in Table 14.
The generation of PFA from the perhydrolysis of glycerol formates, PFA formulations, POAA formations and controls were evaluated as shown in Table 15.

[6] = system: Aspergillus brasiliensis ATCC 16404; assay: Fungicidal activity of ester PFA, dirty conditions (Example 20); format: cell-based; conditions: 5 minutes
From the text: as §1

[7] = 300 ppm PFA pH 6.73 / 368 ppm POAA pH 6.88, 5 minutes
[8] = 300 ppm PFA pH 6.73 / 368 ppm POAA pH 6.88, 10 minutes
[9] = 400 ppm PFA pH 6.95 / 490 ppm POAA pH 6.65, 5 minutes
[10] = 400 ppm PFA pH 6.95 / 490 ppm POAA pH 6.65, 10 minutes

SMILES: O=COO [PFA, peroxyformic acid]
- Log10 Growth ([1]; 200 ppm PFA pH 5.81, 35°C): <2.18 Log10
- Log10 Reduction ([1]; 200 ppm PFA pH 5.81, 35°C): >3.87 Log10
- Log10 Growth ([1]; 250 ppm PFA pH 5.82, 35°C): <2.18 Log10
- Log10 Reduction ([1]; 250 ppm PFA pH 5.82, 35°C): >3.87 Log10
- Log10 Growth ([1]; 300 ppm PFA pH 5.91, 35°C): <2.18 Log10
- Log10 Reduction ([1]; 300 ppm PFA pH 5.91, 35°C): >3.87 Log10
- Log10 Growth ([1]; 350 ppm PFA pH 5.88, 35°C): <2.18 Log10
- Log10 Reduction ([1]; 350 ppm PFA pH 5.88, 35°C): >3.87 Log10
- Log10 Growth ([2]; 200 ppm PFA pH 5.81, 35°C): <2.18 Log10
- Log10 Reduction ([2]; 200 ppm PFA pH 5.81, 35°C): >3.91 Log10
- Log10 Growth ([2]; 250 ppm PFA pH 5.82, 35°C): <2.18 Log10
- Log10 Reduction ([2]; 250 ppm PFA pH 5.82, 35°C): >3.91 Log10
- Log10 Growth ([2]; 300 ppm PFA pH 5.91, 35°C): <2.18 Log10
- Log10 Reduction ([2]; 300 ppm PFA pH 5.91, 35°C): >3.91 Log10
- Log10 Growth ([2]; 350 ppm PFA pH 5.88, 35°C): <2.18 Log10
- Log10 Reduction ([2]; 350 ppm PFA pH 5.88, 35°C): >3.91 Log10
- Average CFU/mL [3, 7]: >3.0E+05 CFU/mL
- Log10 Growth [3, 7]: >5.48 Log10
- Log10 Reduction [3, 7]: <2.26 Log10
- Average CFU/mL [3, 8]: 1.28E+05 CFU/mL
- Log10 Growth [3, 8]: 5.11 Log10
- Log10 Reduction [3, 8]: 2.63 Log10
- Average CFU/mL [3, 9]: >3.0E+05 CFU/mL
- Log10 Growth [3, 9]: >5.48 Log10
- Log10 Reduction [3, 9]: <2.26 Log10
- Average CFU/mL [3, 10]: 7.50E+04 CFU/mL
- Log10 Growth [3, 10]: 4.88 Log10
- Log10 Reduction [3, 10]: 2.86 Log10
- impact of soils on the stability of PFA [4]: no impact
- Average Log CFU/cm2 [5]: 3.22 Log CFU/cm2
- Log reduction [5]: 0.83 Log
- CFU/cm2 ([5]; single samples): 1.84E+03 CFU/cm2 and 1.42E+03 CFU/cm2 and 1.72E+03 CFU/cm2
- CFU/ml ([5]; single samples): 9.20E+02 CFU/ml and 7.10E+02 CFU/ml and 8.60E+02 CFU/ml
- Log CFU/cm2 ([5]; single samples): 3.26 Log CFU/cm2 and 3.15 Log CFU/cm2 and 3.24 Log CFU/cm2
- Log10 Growth ([6]; 200 ppm PFA pH 5.81, 35°C): >4.22 Log10
- Log10 Reduction ([6]; 200 ppm PFA pH 5.81, 35°C): <1.89 Log10
- Log10 Growth ([6]; 250 ppm PFA pH 5.82, 35°C): 3.55 Log10
- Log10 Reduction ([6]; 250 ppm PFA pH 5.82, 35°C): 2.56 Log10
- Log10 Growth ([6]; 300 ppm PFA pH 5.91, 35°C): 3.38 Log10
- Log10 Reduction ([6]; 300 ppm PFA pH 5.91, 35°C): 2.73 Log10
- Log10 Growth ([6]; 350 ppm PFA pH 5.88, 35°C): 3.46 Log10
- Log10 Reduction ([6]; 350 ppm PFA pH 5.88, 35°C): 2.65 Log10

Reference: patent US11684067B2, “Generation of peroxyformic acid through polyhydric alcohol formate” (priority 2014, dated 2023)
